Test results as given in ChEMBL document CHEMBL5212743, “Selectivity Literature for EUbOPEN Chemogenomics Library wave 3” (2023).
Each block holds one molecule with its values, some of them ahead of it.

Assays:
[1] = target: cAMP-dependent protein kinase catalytic subunit alpha (Homo sapiens, UniProt P17612); assay: Selectivity interaction (KinomeScan (DiscoverX)) EUB0000709a PRKACA; conditions: at 100 nM
[2] = target: Epidermal growth factor receptor (Homo sapiens, UniProt P00533); assay: Selectivity interaction (KinomeScan (DiscoverX)) EUB0000709a EGFR; conditions: at 100 nM
[3] = target: T1, Phosphatidylinositol 4,5-bisphosphate 3-kinase catalytic subunit delta isoform (Homo sapiens) (UniProt O00329); assay: Selectivity interaction (KinomeScan (DiscoverX)) EUB0000709a PIK3CD; conditions: at 100 nM
T1 sequence (whole entry): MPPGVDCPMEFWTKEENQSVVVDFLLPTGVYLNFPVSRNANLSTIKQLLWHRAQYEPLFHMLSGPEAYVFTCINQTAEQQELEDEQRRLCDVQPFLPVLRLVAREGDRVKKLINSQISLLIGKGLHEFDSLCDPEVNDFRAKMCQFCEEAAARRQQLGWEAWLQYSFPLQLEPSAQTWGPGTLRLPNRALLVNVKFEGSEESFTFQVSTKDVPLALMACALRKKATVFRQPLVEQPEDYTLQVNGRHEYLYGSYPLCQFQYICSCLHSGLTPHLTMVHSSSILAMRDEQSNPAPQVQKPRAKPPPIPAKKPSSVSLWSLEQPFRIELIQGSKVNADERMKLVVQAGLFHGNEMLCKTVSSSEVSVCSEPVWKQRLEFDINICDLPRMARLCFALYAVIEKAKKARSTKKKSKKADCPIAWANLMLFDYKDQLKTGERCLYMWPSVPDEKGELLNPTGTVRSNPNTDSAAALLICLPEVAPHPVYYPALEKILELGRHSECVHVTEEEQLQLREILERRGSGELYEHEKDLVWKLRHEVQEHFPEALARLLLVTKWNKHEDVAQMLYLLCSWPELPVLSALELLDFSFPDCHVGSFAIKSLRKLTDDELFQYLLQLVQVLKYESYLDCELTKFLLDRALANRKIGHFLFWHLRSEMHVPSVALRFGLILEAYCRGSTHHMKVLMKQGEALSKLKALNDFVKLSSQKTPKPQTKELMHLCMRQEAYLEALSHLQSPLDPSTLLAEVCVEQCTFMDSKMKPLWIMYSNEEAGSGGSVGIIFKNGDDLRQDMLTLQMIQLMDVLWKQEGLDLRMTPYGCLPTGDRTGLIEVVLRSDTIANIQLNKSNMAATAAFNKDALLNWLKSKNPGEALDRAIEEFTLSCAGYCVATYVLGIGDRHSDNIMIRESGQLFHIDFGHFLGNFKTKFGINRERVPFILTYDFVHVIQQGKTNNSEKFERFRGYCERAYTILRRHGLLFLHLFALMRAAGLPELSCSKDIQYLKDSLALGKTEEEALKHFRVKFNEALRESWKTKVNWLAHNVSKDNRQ

[4] = target: T2, Dual specificity mitogen-activated protein kinase kinase 5 (Homo sapiens) (UniProt Q13163); assay: Selectivity interaction (ScanMAX (DiscoverX)) EUB0000700a MAP2K5; conditions: at 10 µM
T2 sequence (whole entry): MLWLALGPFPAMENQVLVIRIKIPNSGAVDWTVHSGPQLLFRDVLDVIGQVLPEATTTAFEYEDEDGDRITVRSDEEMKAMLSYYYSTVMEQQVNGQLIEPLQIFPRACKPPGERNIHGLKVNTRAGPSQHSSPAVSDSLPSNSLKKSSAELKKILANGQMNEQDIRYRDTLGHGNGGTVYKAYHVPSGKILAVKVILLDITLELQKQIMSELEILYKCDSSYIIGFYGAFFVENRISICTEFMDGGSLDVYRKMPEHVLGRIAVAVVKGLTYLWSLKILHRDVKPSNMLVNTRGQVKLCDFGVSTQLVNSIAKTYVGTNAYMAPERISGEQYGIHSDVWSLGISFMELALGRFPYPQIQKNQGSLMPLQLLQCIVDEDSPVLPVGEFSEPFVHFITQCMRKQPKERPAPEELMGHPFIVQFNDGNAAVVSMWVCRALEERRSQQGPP

[5] = test system: Receptor-type tyrosine-protein kinase FLT3 (Homo sapiens), P36888 [UNDEFINED MUTATION]; assay: (§1) Selectivity interaction (KinomeScan (DiscoverX)) EUB0000701a FLT3; conditions: at 1 µM
[6] = test system: T3, Receptor-type tyrosine-protein kinase FLT3 (Homo sapiens), P36888 [D835V]; assay: as §1; conditions: at 1 µM
T3 sequence (whole entry): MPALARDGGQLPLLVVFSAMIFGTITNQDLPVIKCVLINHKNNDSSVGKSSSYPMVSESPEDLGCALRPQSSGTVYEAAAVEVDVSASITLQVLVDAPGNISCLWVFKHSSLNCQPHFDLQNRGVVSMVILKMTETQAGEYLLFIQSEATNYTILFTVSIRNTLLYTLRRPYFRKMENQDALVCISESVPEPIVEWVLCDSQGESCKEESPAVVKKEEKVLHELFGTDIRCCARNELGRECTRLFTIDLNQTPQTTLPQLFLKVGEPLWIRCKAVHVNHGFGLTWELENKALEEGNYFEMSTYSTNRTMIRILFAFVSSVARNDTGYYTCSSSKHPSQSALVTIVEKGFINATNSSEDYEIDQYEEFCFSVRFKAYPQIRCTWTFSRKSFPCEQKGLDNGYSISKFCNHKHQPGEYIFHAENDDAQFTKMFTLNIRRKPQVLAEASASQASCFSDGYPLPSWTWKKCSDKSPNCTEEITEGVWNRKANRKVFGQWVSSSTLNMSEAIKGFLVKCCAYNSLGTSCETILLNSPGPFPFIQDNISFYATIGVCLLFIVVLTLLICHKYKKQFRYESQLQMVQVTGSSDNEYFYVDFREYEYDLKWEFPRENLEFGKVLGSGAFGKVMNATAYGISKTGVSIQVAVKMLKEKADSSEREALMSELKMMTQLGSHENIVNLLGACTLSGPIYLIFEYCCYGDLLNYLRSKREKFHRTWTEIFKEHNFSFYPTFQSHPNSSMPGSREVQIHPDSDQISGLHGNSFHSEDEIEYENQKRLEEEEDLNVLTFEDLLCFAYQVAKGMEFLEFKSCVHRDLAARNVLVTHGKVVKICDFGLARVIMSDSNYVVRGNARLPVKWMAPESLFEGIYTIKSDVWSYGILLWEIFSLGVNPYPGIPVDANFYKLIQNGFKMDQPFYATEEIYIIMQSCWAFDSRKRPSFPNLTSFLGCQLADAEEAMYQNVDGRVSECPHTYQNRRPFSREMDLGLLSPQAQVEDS

[7] = target: T4, Mitogen-activated protein kinase kinase kinase 19 (Homo sapiens) (UniProt Q56UN5); assay: Selectivity interaction (KinomeScan (DiscoverX)) EUB0000701a MAP3K19; conditions: at 1 µM
T4 sequence (whole entry): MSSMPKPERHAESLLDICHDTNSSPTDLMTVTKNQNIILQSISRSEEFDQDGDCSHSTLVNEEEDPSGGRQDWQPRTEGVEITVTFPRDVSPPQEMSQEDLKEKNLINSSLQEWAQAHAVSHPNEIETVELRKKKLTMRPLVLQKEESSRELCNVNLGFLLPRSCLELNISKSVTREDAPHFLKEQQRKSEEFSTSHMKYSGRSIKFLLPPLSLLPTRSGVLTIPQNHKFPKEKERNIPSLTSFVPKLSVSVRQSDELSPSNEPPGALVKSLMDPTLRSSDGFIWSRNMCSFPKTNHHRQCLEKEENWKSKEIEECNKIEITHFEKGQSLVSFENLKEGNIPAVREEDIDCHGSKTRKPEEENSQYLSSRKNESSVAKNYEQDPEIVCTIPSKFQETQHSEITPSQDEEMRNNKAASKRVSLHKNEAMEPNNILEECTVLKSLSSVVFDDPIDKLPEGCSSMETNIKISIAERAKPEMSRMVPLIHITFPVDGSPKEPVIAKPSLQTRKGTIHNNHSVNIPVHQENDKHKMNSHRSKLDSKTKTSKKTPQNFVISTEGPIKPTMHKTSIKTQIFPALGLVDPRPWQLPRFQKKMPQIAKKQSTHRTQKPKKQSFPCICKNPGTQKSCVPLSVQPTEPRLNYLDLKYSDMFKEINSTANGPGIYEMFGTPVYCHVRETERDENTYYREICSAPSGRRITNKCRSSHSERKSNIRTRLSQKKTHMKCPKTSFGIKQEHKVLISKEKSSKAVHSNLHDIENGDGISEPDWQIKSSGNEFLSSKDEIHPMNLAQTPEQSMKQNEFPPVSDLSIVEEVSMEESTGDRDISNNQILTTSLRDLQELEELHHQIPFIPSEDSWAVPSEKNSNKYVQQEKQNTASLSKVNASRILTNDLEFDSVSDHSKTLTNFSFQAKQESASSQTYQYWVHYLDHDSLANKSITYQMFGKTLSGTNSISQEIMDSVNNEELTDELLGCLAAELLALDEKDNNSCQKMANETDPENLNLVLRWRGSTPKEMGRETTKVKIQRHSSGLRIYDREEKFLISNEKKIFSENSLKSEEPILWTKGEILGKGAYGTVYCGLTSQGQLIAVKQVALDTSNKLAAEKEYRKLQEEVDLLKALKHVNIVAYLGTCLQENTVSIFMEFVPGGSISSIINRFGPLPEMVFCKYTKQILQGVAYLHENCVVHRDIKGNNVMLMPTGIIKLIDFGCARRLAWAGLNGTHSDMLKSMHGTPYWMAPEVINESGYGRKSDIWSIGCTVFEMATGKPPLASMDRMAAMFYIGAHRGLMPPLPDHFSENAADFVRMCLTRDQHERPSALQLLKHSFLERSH

[8] = target: T2, Dual specificity mitogen-activated protein kinase kinase 5 (Homo sapiens); assay: Selectivity interaction (KinomeScan (DiscoverX)) EUB0000701a MAP2K5; conditions: at 1 µM
[9] = target: Inhibitor of nuclear factor kappa-B kinase subunit epsilon (Homo sapiens) (UniProt Q14164); conditions: at 1 µM
[10] = target: Tyrosine-protein kinase ABL1 (Homo sapiens, UniProt P00519); assay: Selectivity interaction (KinomeScan (DiscoverX)) EUB0000701a ABL1; conditions: at 1 µM
[11] = target: Hepatocyte growth factor receptor (Homo sapiens) (UniProt P08581); conditions: at 1 µM
[12] = target: Mitogen-activated protein kinase kinase kinase kinase 2 (Homo sapiens) (UniProt Q12851); conditions: at 1 µM
[13] = target: T5, Bromodomain-containing protein 7 (Homo sapiens) (UniProt Q9NPI1); assay: Selectivity interaction (Bromodomain panel (DSF assay)) EUB0000004c BRD7
T5 sequence (whole entry): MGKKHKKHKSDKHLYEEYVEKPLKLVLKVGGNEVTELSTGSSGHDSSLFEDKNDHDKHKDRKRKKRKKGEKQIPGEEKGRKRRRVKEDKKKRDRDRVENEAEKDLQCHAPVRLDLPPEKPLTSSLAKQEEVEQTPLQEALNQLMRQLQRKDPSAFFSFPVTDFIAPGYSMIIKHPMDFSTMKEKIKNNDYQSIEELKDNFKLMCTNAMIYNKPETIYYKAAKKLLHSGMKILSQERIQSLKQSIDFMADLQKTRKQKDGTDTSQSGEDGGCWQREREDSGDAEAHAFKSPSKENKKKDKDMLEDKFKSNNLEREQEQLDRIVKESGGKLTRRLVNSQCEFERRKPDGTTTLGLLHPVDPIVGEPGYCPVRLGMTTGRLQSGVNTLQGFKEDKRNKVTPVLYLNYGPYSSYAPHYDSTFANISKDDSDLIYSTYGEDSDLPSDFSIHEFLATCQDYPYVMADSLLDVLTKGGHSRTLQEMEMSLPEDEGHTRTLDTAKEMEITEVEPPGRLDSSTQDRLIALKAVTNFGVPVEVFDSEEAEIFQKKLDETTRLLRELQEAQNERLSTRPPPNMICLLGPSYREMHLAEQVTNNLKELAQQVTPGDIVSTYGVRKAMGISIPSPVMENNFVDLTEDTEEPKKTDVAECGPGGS

[14] = target: T6, Chromatin remodeling regulator CECR2 (Homo sapiens, UniProt Q9BXF3); assay: Selectivity interaction (Bromodomain panel (DSF assay)) EUB0000004c CECR2
[15] = target: Transcription initiation factor TFIID subunit 1 (Homo sapiens, UniProt P21675); assay: Selectivity interaction (Bromoscan (DiscoverX, BromoKdELECT)) EUB0000004c TAF1; conditions: at 10 µM
[16] = target: CREB-binding protein (Homo sapiens, UniProt Q92793); assay: Selectivity interaction (Bromoscan (DiscoverX, BromoKdELECT)) EUB0000004c CREBBP; conditions: at 10 µM
[17] = target: Bromodomain-containing protein 9 (Homo sapiens) (UniProt Q9H8M2); assay: Selectivity interaction (Bromodomain panel (DSF assay)) EUB0000004c BRD9
[18] = target: T6, Chromatin remodeling regulator CECR2; assay: Selectivity interaction (Bromoscan (DiscoverX, BromoKdELECT)) EUB0000004c CECR2; conditions: at 10 µM

T6 sequence (Q9BXF3 whole entry, looked up): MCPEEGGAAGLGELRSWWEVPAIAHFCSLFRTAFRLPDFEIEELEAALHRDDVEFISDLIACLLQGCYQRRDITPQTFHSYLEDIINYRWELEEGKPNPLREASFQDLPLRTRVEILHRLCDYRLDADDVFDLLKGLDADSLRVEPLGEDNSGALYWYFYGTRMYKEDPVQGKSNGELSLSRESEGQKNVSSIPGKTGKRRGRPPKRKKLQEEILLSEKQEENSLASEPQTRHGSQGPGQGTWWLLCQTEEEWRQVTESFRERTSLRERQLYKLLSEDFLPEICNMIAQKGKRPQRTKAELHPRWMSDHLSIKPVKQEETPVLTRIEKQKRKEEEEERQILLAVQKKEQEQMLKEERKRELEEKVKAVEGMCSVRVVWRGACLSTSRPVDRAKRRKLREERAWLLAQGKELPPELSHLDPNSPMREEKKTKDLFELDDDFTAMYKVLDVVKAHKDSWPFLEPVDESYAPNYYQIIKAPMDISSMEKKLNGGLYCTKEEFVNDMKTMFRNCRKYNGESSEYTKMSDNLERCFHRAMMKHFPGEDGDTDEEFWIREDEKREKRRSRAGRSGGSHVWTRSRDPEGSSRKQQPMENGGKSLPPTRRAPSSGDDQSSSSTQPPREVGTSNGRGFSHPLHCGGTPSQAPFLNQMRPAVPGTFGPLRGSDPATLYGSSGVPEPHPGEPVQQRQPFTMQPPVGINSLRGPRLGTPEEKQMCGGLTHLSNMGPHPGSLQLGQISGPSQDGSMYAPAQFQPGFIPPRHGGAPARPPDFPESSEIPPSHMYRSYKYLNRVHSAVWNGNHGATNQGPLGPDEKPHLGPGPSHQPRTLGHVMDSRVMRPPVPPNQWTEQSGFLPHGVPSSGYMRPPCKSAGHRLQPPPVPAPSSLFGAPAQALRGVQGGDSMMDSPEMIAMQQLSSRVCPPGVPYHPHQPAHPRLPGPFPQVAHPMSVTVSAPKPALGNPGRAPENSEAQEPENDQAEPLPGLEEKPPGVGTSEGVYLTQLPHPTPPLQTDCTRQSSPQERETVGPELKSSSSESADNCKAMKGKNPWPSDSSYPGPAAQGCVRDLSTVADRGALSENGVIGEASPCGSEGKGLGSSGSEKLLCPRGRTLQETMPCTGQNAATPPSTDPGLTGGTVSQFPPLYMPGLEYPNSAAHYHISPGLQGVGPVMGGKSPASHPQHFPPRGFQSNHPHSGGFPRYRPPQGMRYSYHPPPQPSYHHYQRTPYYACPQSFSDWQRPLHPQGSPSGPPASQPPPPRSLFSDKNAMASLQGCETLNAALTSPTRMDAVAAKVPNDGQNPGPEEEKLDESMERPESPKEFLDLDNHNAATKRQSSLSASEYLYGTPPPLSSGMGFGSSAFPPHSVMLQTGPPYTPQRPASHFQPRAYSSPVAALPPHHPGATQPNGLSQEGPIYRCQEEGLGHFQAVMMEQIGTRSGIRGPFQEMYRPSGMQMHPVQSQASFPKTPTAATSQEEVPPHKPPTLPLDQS
Hepatocyte growth factor receptor (Homo sapiens), sequence (P08581 whole entry): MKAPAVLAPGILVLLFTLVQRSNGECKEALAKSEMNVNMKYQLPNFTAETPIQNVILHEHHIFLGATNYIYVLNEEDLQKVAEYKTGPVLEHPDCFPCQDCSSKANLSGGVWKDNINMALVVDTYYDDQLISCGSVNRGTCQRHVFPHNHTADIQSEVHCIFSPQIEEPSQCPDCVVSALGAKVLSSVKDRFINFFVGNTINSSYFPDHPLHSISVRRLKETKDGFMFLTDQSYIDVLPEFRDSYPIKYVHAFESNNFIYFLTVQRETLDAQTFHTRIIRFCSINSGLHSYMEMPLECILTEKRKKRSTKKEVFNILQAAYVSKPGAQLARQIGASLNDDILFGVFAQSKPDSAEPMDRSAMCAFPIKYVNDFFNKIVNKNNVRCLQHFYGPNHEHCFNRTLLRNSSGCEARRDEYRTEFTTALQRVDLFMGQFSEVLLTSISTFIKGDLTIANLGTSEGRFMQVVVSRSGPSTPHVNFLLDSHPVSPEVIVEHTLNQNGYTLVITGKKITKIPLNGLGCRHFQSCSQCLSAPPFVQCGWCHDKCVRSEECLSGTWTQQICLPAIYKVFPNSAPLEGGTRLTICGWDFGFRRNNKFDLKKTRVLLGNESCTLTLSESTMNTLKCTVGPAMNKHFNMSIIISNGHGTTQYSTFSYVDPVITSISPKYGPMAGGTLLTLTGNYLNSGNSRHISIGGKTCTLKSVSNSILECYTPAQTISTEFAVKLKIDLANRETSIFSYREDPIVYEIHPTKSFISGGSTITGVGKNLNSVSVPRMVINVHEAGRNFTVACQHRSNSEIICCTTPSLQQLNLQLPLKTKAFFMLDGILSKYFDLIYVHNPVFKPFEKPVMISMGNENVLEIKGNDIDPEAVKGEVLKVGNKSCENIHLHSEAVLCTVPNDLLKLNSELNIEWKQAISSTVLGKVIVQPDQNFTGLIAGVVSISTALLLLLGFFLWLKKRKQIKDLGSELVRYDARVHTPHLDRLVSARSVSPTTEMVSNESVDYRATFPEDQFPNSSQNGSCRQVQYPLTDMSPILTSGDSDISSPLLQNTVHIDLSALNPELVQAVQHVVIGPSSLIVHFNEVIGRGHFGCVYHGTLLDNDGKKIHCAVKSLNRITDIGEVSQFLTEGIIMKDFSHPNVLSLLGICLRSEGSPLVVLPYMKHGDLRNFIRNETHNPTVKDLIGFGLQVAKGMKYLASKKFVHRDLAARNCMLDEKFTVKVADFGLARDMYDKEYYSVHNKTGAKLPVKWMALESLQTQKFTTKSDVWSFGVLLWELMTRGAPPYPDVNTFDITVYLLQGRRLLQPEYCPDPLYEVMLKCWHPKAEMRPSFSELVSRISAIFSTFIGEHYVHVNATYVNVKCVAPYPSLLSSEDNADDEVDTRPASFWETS
Epidermal growth factor receptor, sequence (P00533 whole entry, canonical isoform): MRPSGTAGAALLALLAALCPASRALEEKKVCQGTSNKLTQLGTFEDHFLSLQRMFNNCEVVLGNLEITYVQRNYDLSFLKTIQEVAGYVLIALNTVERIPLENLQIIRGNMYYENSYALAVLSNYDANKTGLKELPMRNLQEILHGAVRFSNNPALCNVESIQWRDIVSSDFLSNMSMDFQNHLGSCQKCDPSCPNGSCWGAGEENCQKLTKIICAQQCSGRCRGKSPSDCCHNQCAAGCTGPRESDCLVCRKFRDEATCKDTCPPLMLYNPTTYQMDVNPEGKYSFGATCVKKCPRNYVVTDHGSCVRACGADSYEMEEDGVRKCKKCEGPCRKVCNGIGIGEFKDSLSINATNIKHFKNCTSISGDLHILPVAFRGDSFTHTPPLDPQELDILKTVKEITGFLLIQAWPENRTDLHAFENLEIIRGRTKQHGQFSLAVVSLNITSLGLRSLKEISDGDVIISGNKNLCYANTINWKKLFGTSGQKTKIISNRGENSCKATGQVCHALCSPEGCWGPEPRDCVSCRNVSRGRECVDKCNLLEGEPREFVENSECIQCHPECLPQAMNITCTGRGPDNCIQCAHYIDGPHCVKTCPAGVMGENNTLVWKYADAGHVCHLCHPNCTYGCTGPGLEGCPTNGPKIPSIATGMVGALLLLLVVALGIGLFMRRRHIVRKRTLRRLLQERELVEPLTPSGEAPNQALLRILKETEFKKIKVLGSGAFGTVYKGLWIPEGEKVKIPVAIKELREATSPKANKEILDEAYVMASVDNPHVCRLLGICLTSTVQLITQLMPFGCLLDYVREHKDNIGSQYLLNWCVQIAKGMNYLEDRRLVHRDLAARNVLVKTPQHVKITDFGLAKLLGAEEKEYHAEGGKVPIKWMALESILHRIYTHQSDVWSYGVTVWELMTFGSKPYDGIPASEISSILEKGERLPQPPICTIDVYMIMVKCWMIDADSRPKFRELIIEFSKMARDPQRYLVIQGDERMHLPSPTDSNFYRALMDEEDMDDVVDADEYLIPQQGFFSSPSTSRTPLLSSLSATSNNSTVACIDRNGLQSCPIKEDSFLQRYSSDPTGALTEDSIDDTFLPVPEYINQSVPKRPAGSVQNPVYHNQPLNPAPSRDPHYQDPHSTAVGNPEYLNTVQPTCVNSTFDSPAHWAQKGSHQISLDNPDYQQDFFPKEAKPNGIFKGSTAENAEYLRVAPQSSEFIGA
Inhibitor of nuclear factor kappa-B kinase subunit epsilon (Homo sapiens), sequence (Q14164 whole entry): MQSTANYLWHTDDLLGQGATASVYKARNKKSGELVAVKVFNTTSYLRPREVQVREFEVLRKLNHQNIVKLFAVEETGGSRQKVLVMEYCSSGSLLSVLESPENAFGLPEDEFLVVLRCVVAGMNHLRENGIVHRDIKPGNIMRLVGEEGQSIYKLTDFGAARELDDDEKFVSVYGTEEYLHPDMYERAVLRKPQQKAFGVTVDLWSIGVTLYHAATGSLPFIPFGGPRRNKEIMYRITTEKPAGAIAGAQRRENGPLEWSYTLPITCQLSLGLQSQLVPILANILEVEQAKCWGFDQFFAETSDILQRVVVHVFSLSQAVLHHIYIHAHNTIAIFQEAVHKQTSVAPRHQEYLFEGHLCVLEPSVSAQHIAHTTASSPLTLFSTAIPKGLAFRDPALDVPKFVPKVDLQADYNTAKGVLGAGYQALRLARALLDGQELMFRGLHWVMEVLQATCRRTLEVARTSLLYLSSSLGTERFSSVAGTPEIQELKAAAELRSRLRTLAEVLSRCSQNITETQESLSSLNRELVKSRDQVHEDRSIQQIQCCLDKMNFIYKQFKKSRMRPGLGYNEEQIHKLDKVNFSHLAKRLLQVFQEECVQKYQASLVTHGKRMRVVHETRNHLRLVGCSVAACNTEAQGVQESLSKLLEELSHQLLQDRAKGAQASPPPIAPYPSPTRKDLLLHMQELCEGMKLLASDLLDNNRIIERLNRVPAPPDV

% of control [1]: 28%
% of control [2]: 52%
% of control [3]: 51%
SMILES: Cn1cc(Cl)c2c(Oc3c(F)cc(Nc4cc(Cl)nc(N)n4)cc3F)ccnc21

% of control [4]: 17.6%
SMILES: C[C@H](NC(=O)Nc1cc2[nH]ncc2c(CO)n1)c1ccccn1

dTm [13]: 6.47 K
dTm [14]: 5.61 K
% of control [15]: 8.4%
% of control [16]: 7.2%
dTm [17]: 9.21 K
% of control [18]: 0%
SMILES: COc1cc(-c2cn(C)c(=O)c3cnccc23)c(OC)cc1CN(C)C

More lines, now with the values behind:

SMILES: CN(C)c1ncnc(-c2ccc3nc(Nc4cc(CN5CCN(C(=O)CC(F)(F)F)CC5)ccn4)[nH]c3c2)c1Cl
% of control [5]: 15%
% of control [6]: 7%
% of control [7]: 15%
% of control [8]: 1.8%
% of control [9]: 13%
% of control [10]: 4.2%

SMILES: C[C@]1(O)C[C@@H](c2nc(-c3ccc4ccc(-c5ccccc5)nc4c3)c3c(N)nccn32)C1
% of inhibition [11]: 86%
% of inhibition [12]: 99%
